Experimental data taken from patent US20260258003A1, “SLACK-ACTIVATING COMPOUNDS AND THEIR MEDICAL USE” (Johann Wolfgang Goethe-Universität Frankfurt am Main, priority 2023, published 2026).

Tests used:
Assay type in all cases: in vivo
[1] = system: SLIGRL-induced scratching behavior of mice; test: SLIGRL-induced acute itch model; settings: 10 mg/kg i.p.
Description: Further studies were conducted to assess the in vivo efficacy of Compound 6 and Compound 10 in mice. In detail, experiments were performed in 8 to 16 weeks old C57BL/6N mice (Charles River, Sulzfeld, Germany) and animals with a genetic deletion of Slack (Slack^−/− mice^27) of either sex. Animals were housed on a 12 h light/dark cycle with access to food and water ad libitum. […]
Acute itch behavior of the mice was monitored using a histamine-based, chloroquine-based and SLIGRL-based acute itch behavior model. […] Numbers of scratching bouts directed to the nape of the neck were assessed over 30 min by videotaping.
Antipruritic efficacy of Compound 6 in histamine-independent itch evoked by SLIGRL injection: The chloroquine-induced scratching in mice is driven by activation of MrgprA3 in the NP2 population of sensory neurons^4,29. To further explore the antipruritic efficacy of Compound 6 in histamine-independent itch, the inventors assessed the behavioral response after s.c. injection of the peptide Ser-Leu-Ile-Gly-Arg-Leu (SLIGRL) that evokes scratching by activation of MrgprC11 (ref^30), which is expressed in the NP2 and NP3 population^4. […]

[2] = system: CFA-induced paw hypersensitivity of mice; test: CFA-induced inflammatory pain model; settings: 10 mg/kg i.p. 24 h after CFA; 0.5 h and 1 h after administration
Description: Animals: Experiments were performed in 8-16 week-old C57BL/6N mice (Charles River, Sulzfeld, Germany) of either sex. The animals were housed under a 12 h light/dark cycle with access to food and water ad libitum. All experiments adhered to the Animal Research: Reporting on In Vivo Experiments (ARRIVE) guidelines and were approved by and conducted in accordance with the regulations of the local Animal Welfare authorities (Regierungspräsidium Darmstadt, Germany; approval number V54-19c20/15-FR/2011). All behavioral studies were conducted during the light cycle of the day at room temperature (20-24° C.) by an observer blinded for the treatment of the animals and/or their genotype.
Behavioral assessment: Mechanical sensitivity of a hindpaw was assessed using a dynamic plantar aesthesiometer (Ugo Basile, Comerio, VA, Italy). Animals were placed on a wire mesh grid and habituated to the apparatus chamber for 1 h. […] The paw withdrawal latency was recorded automatically and calculated as the average of 6-8 measurements. […] Mechanical sensitivity was again determined 24 h after the CFA injection. Immediately thereafter, drug or vehicle (10% cyclodextrine in 0.9% NaCl) were intraperitoneally administered and the mechanical sensitivity was determined over 3 h. […]

[3] = system: neuropathic pain behavior of mice; test: Spared nerve injury (SNI) model of neuropathic pain; settings: i.p., 28 days after SNI surgery, assessed over 3 h
Description: FIG. 8: Compound 6 and Compound 10 inhibit histamine-independent acute itch behavior and neuropathic pain behavior. (A), (B), Motor function. […] Dotted lines indicate cutoff times. * p<0.05, *** p<0.001, Kruskal-Wallis test. (C)-(G), Acute itch behavior. Compound 6, Compound 10 or vehicle were i.p. administered and 15 min thereafter different pruritogens were s.c. administered into the nape of the neck and the number of scratching bouts was counted over 30 min. In each panel, the time course of scratching behavior is shown on the left and the sum of scratching bouts in 30 min is presented on the right. (C), Compound 6 and Compound 10 inhibited the scratching behavior induced by chloroquine in a dose-dependent manner. (D) Compound 6 inhibited the chloroquine-induced scratching behavior in WT mice but not in Slack^−/− littermates. (E) Compound 6 ameliorated the scratching behavior induced by SLIGRL, (F) but not by histamine. n=7-8 per group. […] Twenty-eight days thereafter, mechanical hypersensitivity of the affected hindpaw (determined using a Dynamic Plantar Aesthesiometer), which is indicated by decreased paw withdrawal latency time, was detected in all mice. Then Compound 10 or vehicle were i.p. administered and the mechanical sensitivity was assessed over 3 h. […]

Compound | SLIGRL-induced scratching behavior [1] | paw withdrawal latencies compared to vehicle-treated animals [2] | neuropathic pain behavior (mechanical hypersensitivity, paw withdrawal latency) [3]
O=C(O)COCCN1CCN(C2=Nc3ccccc3Oc3ccc(Cl)cc32)CC1 [Compound 6, 2-(2-(4-(2-Chlorodibenzo[b,f][1,4]oxazepin-11-yl)piperazin-1-yl)ethoxy) acetic acid] | significantly inhibited | significantly increased | –
O=c1nc(CN2CCN(C3=Nc4ccccc4Oc4ccc(Cl)cc43)CC2)[nH][nH]1 [Compound 10, 5-((4-(2-Chlorodibenzo[b,f][1,4]oxazepin-11-yl)piperazin-1-yl)methyl)-1,2-dihydro-3H-1,2,4-triazol-3-one] | – | – | inhibited the neuropathic pain behavior
